Source: patent US20110182953A1, “P[…] OF CALCIUM ACAMPROSATE” (priority 2009, published 2011)

Assay: accelerated stability tests
Format: physicochemical
Conditions: exposed to heat and/or humidity sources

CC(=O)NCCCS(=O)(=O)O [form B, calcium acamprosate]
stability of the polymorphic form in accelerated stability tests: does not alter
